# According to article PMC10094418, “Butein Inhibits Cell Growth by Blocking the IL-6/IL-6Rα Interaction in Human Ovarian Cancer and by Regulation of the IL-6/STAT3/FoxO3a Pathway” (International Journal of Molecular Sciences, 2023):
# Columns and labels:
# [1] = tested on: STAT3 phosphorylation in A2780 cells; assay: Western blotting of STAT3 phosphorylation, A2780; type: cell-based, human; conditions: relative to IL-6 treated cells
# Procedure: After each drug treatment of the cells, the cells were dissolved in 100 μL of radioimmunoprecipitation assay (RIPA) buffer (Thermo Fisher Scientific Inc., Waltham, MA, USA) and centrifuged to separate the supernatant containing protein. Isolated protein concentrations were measured using the Pierce BCA Protein Assay Kit (Thermo Fisher Scientific Inc., Waltham, MA, USA). Aliquots of proteins quantified at […] were boiled at 100 °C in 5× sample buffer, separated on a 12% SDS-polyacrylamide gel and electrophoresed onto polyvinylidene difluoride (PDVF) membranes (Millipore, Billerica, MA, USA). The PDVF membranes were blocked for 1 h at 25 °C with 5% BSA in 1× tris buffered saline containing 0.05% Tween20 (TBST) (Sigma-Aldrich, St. Louis, MO, USA). The membrane was incubated in the primary antibody at 4 °C overnight. PDVF membranes were washed with 1× TBST and incubated with AffiniPure goat anti-rabbit IgG secondary antibody (Jackson Immunoresearch, West Grove, PA, USA) for 1 h at room temperature. After washing again with TBST buffer, enhanced signals were detected using the SuperSignal™ West Femto Maximum Sensitivity Substrate kit (cat.no. 34094, Thermo Scientific, Rockford, IL, USA). The blot was imaged using the ChemiDoc imaging system (Bio-Rad, Herles, CA, USA), and protein expression was quantified with the ImageJ software (v1.8.0).
# gp130 = target: T1, gp130 (Homo sapiens, UniProt P40189); assay: Surface plasmon resonance, immobilized gp130; type: binding; conditions: SPR, CM5 chip, steady-state KD
# T1 construct: purchased Sino Biological or ANRT
# T1 sequence (P40189 23-918): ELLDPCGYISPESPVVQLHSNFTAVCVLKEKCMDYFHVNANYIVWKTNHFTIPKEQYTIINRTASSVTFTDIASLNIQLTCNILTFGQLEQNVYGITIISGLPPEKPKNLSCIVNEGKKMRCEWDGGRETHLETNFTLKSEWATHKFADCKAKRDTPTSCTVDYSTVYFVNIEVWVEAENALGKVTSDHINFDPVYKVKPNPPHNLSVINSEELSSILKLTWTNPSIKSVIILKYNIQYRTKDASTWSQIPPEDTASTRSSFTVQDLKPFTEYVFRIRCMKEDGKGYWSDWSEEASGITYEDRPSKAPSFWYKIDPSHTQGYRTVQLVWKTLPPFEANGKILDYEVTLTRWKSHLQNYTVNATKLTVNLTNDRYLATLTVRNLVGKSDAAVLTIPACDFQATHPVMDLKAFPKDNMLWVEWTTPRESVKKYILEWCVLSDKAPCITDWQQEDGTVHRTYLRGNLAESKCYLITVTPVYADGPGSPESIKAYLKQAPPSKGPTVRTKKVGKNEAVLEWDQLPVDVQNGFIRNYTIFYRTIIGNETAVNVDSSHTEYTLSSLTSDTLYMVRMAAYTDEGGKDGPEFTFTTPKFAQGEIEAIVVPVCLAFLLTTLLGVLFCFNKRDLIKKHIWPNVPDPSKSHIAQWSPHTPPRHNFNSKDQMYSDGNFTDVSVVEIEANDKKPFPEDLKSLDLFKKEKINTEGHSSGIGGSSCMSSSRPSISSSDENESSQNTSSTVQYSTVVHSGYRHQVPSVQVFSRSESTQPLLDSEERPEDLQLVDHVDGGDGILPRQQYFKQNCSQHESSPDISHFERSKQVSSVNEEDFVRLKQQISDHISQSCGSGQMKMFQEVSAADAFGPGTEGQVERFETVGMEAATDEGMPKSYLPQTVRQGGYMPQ
# Procedure: The surface plasmon resonance (SPR) assay was measured using the BIAcore T200 model (GE Healthcare, Chicago, IL, USA) with HBS-EP buffer (1×HBS-EP, GE Healthcare, Chicago, IL, USA) containing 5% dimethyl sulfoxide (DMSO; Sigma-Aldrich, St. Louis, MO, USA). The pH scouting for IL-6 (PeproTech, Rocky Hill, NJ, USA), IL-6Rα (PeproTech, Rocky Hill, NJ, USA), and gp130 (Sino Biological, Beijing, China, or ANRT, Daejeon, Korea) immobilization was performed in 10 mM acetate buffer at pH 4.5. IL-6, IL-6Rα, and gp130 were immobilized on a CM5 chip at 750, 1200, and 2000 response units (RU). Butein was injected into the IL-6, IL-6Rα and gp130-immobilized flow cell at concentrations of 10, 20, 30, 40, 50, 60, 70, 80, 90, and 100 μM with a 25 μL/min flow rate for 150 s and allowed to dissociate for 300 s. Steady-state KD was determined via the T-200 BIAevaluation software (GE Healthcare, Chicago, IL, USA).
# A2780 cells [2] = assay: Clonogenic formation assay, A2780; type: cell-based, human; conditions: compared with control siltuximab-treated cells
# Procedure: A2780 and SKOV3 cell lines were seeded at approximately 5000 cells/well in 24-well plates. Butein was added to the cell medium at various concentrations (5, 10, and 25 μM) together with control siltuximab (CTNO328; EUSA Pharma, Inc., Hemel Hempstead, UK) for 12 h. After 2 weeks, the colonies formed were fixed with fixer buffer, stained with crystal violet, and imaged with a ChemiDoc imaging system (Bio-Rad, Herles, CA, USA).
# A2780 cells [3] = assay: Annexin V apoptosis assay, A2780; type: cell-based, human; conditions: dose-dependent, p < 0.005
# Procedure: (§1) A2780 and SKOV3 cell lines were treated with control (siltuximab 10 μM) and butein (5, 10, and 25 μM). After 6 h, the cells were fixed with 70% ethanol for cell cycle analysis and stained with propidium iodide (PI). Cell death was analyzed using the FITC Annexin V Apoptosis Detection kit with 7-AAD (Cat.no. 640922, BioLegend, San Diego, CA, USA). Cells were sorted using a FACS Canto II (BD Biosciences, Franklin Lakes, NJ, USA) and cell cycle and apoptosis were analyzed using BD FACS Diva software version 6. 2. Analysis (BD Biosciences, Franklin Lakes, NJ, USA) was performed in triplicate.
# SKOV3 cells [4] = assay: Flow cytometric cell cycle analysis (PI), SKOV3; type: cell-based, human; conditions: butein treatment; 58.3% under control conditions
# Procedure: as §1
# SKOV3 cells [5] = assay: Wound-healing assay, SKOV3; type: cell-based, human; conditions: 24 h and 48 h, concentration-dependent, vs control, 0.1% DMSO and siltuximab
# Procedure: A2780 and SKOV3 cells were cultured to 90% confluence in 6-well plates. After changing to a serum-free medium, the cell monolayer was scraped to artificially form homogeneous wound with uniform thickness. The drug treatment for each well was carried out in the following manner: siltuximab at 50 μM; butein at 10, 25, and 50 μM. The cells were imaged at 0, 24, and 48 h.
structure (smiles),measurement,setting,value
O=C(/C=C/c1ccc(O)c(O)c1)c1ccc(O)cc1O [butein],"Phosphorylation of STAT3, A2780",[1],inhibited in a concentration-dependent manner
same,Kd,gp130,616 µM
same,"Clonogenicity, A2780",A2780 cells [2],significantly inhibited
same,"Total apoptosis, A2780",A2780 cells [3],significantly increase
same,SKOV3 cells in G1-phase,SKOV3 cells [4],65.8%
same,"Cell migration, SKOV3",SKOV3 cells [5],reduced
